In patent US20090297571A1, “ANTIFUNGAL WALLBOARDS AND BUILDING MATERIALS AND METHODS FOR THE PRODUCTION THEREOF” (SYNGENTA CROP PROTECTION, INC., priority 2004, published 2009):
Values after ≈ are worked out from the molar mass of the structure shown. Values joined by “and” are separate entries in the source; they are usually repeats but may differ in a detail not shown here. Equal values may be shown once. Read-outs that look alike come from different tables or passages of the source.

Experiments:
Format in all cases: cell-based
Alternaria tenuissima [1] = assay: Synergy testing of 2-way mixtures, 24 well plates; conditions: A. tenuissima
Experimental: (§1) For synergism testing of the 2-way mixtures 100 ul of each fungicide were filled into the 24 well plates (8 different rates) and 800 ul of 0.3% PDA media containing the spore suspension was added (see above). Different ratios of the 2 fungicide rates were tested at the same time.
(§2) Alternaria tenuissima, Penicillium citrinum, Stachybotrys chartarum, Aspergillus niger and Aureobasidium pullulans were separately cultivated on PDA media to […] sporulation. Spore suspensions were produced for each fungi.
(§3) For the mixtures of different fungicides the synergism was calculated based on the Colby equation, which is described below: […]
(§4) A synergistic effect exists whenever the action of the active ingredient combination of the compound of formula I and one or more compounds of formula II is greater than the sum of the actions of the active ingredients applied individually.
(§5) The fungicidal action to be expected, We, for a given combination of two fungicides can be calculated as follows (see COLBY, S. R. “Calculating synergistic and antagonistic response of herbicide combinations”. Weeds 15, pages 20-22; 1967):
(§6) If the activity actually observed is greater than the expected value We, there is a synergistic effect.
(§7) All rates below are expressed as mg ai/l (i.e. ppm).

Aureobasidium pullulans [2] = assay: Synergy testing of 2-way mixtures, 24 well plates; conditions: A. pullulans
Experimental: as §1, §2, §3, §4, §5, §6, §7

Aspergillus niger [3] = assay: Synergy testing of 2-way mixtures, 24 well plates; conditions: A. niger
Experimental: as §1, §2, §3, §4, §5, §6, §7

Alternaria tenuissima [4] = assay: Liquid culture assay on 24 well plates, solo ai (EC95/MIC); conditions: for EC95: 24° C., 3-6 days; for MIC: Alternaria tenuissima, read-out: MIC Minimal inhibition concentration
Experimental: (§8) The following compounds and formulations were used: […]
as §2
(§9) For solo (i.e. single) ai testing the formulated fungicide (100 ul) was filled into the 24 well plates (8 different rates: 100-0.05 mg aiA final volume as described above) and 100 ul distilled water was added. Afterwards 800 ul of 0.3% PDA media was added to the plate. The spore suspension of the specific fungi was added to this media in advance containing approx. 100.000 spores/ml. The 24 well plates were sealed and incubated at 24° C.
(§10) Dependent on the growth properties of each organisms, the evaluation was done after 3 to 6 days, when the surface of the check well was covered with mycelium. The evaluation was performed by assessing the growth of the fungi related to the check growth. The results are expressed as % activity relative to the check (values of 0-100% growth). Afterwards the results were converted in % growth inhibition. EC95 values and also MIC (minimal inhibition concentration) values were derived for each compound.
(§11) For each solo compound a graph was drawn of percentage inhibition against the concentration of the fungicide. […] Also the concentration that gave the minimum inhibition concentration was derived as the MIC value.

Stachybotrys chartarum [5] = assay: as above; conditions: for EC95: 24° C., 3-6 days; for MIC: Stachybotrys chartarum, read-out: MIC Minimal inhibition concentration
Experimental: as §8, §2, §9, §10, §11

Penicillium citrinum = assay: as above; conditions: for EC95: 24° C., 3-6 days; for MIC: Penicillium citrinum, read-out: MIC Minimal inhibition concentration
Experimental: as §8, §2, §9, §10, §11

Aureobasidium pullulans [6] = assay: as above; conditions: for EC95: 24° C., 3-6 days; for MIC: Aureobasidium pullulans, read-out: MIC Minimal inhibition concentration
Experimental: as §8, §2, §9, §10, §11

Aspergillus niger [7] = assay: as above; conditions: for EC95: 24° C., 3-6 days; for MIC: Aspergillus niger, read-out: MIC Minimal inhibition concentration
Experimental: as §8, §2, §9, §10, §11

Stachybotrys chartarum [8] = assay: Synergy testing of 2-way mixtures, 24 well plates; conditions: S. chartarum
Experimental: as §1, §2, §3, §4, §5, §6, §7

Aspergillus versicolor = assay: Agar growth medium petri dish test, visual assessment of fungus-free surface; conditions: after 19 days at 25° C.
Experimental: (§12) A fungal growth medium was made comprising yeast extract (4 g) agar (8 g), magnesium sulphate (0.2 g), sodium nitrate (2.4 g), potassium chloride (0.2 g), potassium dihydrogen orthophosphate (0.6 g), glycerol (8 ml), distilled water (390 ml). Fungicides as set out in Tables 1 to 4 were added at levels of 5000, 100, 10, 1, 0.1 and 0.01 mg fungicide/litre of growth medium to give […] different growth medium compositions for each fungicide. These growth media containing the fungicide were each put into petri dishes.
(§13) Aspergillus versicolor, Ulocladium chartarum, Mucor indicus and Alternaria alternata were separately propagated on Luria agar to suppress sporulation and mycelial plugs were transferred upside down onto the petri dishes containing the growth medium.
(§14) A visual assessment was made of the surface of the petri dishes. The result recorded was the percentage of the surface that remained free of fungus. This was recorded as percentage activity
(§15) For each fungicide, a graph was drawn of percentage activity against concentration of to fungicide in the growth medium. From this graph, the concentrations of fungicide required to achieve 50%, 80% and 95% activity was estimated. These figures are given in the results tables.

Mucor indicus = assay: as above; conditions: after 3 days at 25° C., 'no effect' = less than 50% activity at highest dose rate of 100 mg/l
Experimental: as §12, §13, §14, §15

Alternaria alternata = assay: as above
Experimental: as §12, §13, §14, §15

Ulocladium chartarum = assay: as above; conditions: after 13 days at 20° C., 'no effect' = less than 50% activity at highest dose rate of 100 mg/l
Experimental: as §12, §13, §14, §15

[9] = CCZ + FDL table, rate (PPZ) 3.1 mg ai/l
[10] = CCZ + FDL table, rate (PPZ) 1.6 mg ai/l
[11] = A. tenuissima, rates 0-100 mg ai/l, mean values of n = 5
[12] = S. chartarum, rates 0-100 mg ai/l, mean values of n = 5
[13] = P. citrinum, rates 0-100 mg ai/l, mean values of n = 5
[14] = A. pullulans, rates 0-100 mg ai/l, mean values of n = 5
[15] = A. niger, rates 0-100 mg ai/l, mean values of n = 5

Compound: CC(C1CC1)C(O)(Cn1cncn1)c1ccc(Cl)cc1 (stereo not shown) [Cyproconazole]
- inh % (PPZ alone) (Alternaria tenuissima [1]; CCZ + FDL table, rate (PPZ) 0.8 mg ai/l): 10%
- inh % (PPZ alone) (Alternaria tenuissima [1]; [9]): 30%
- inh % (PPZ alone) (Aureobasidium pullulans [2]; [10]): 70%
- inh % (PPZ alone) (Aspergillus niger [3]; [10]): 0%
- inh % (PPZ alone) (Aspergillus niger [3]; [9]): 0%
- EC95 (Alternaria tenuissima [4]; A. tenuissima): 10.2 mg ai/l
- MIC (Alternaria tenuissima [4]; [11]): 12.5 µg/mL (≈ 42.8 µM)
- EC95 (Stachybotrys chartarum [5]; S. chartarum): >100 mg ai/l
- MIC (Stachybotrys chartarum [5]; [12]): > 100 µg/mL
- EC95 (Penicillium citrinum; P. citrinum): 50 mg ai/l
- MIC (Penicillium citrinum; [13]): 50 µg/mL (≈ 171 µM)
- EC95 (Aureobasidium pullulans [6]; A. pullulans): 6.5 mg ai/l
- MIC (Aureobasidium pullulans [6]; [14]): 12.5 µg/mL (≈ 42.8 µM)
- EC95 (Aspergillus niger [7]; A. niger): 10.1 mg ai/l
- MIC (Aspergillus niger [7]; [15]): 12.5 µg/mL (≈ 42.8 µM)

Compound: CC1COC(Cn2cncn2)(c2ccc(Oc3ccc(Cl)cc3)cc2Cl)O1 (stereo not shown) [Difenoconazole]
- inh % (DFZ alone) (Stachybotrys chartarum [8]; DFZ 0.8 mg ai/l): 50%
- inh % (DFZ alone) (Stachybotrys chartarum [8]; DFZ 1.6 mg ai/l): 90%
- inh % (DFZ alone) (Aureobasidium pullulans [2]; DFZ 0.2 mg ai/l): 70%
- inh % (DFZ alone) (Aureobasidium pullulans [2]; DFZ 0.8 mg ai/l): 90%
- inh % (DFZ alone) (Aureobasidium pullulans [2]; DFZ 1.6 mg ai/l): 90%
- inh % (DFZ alone) (Aureobasidium pullulans [2]; DFZ 3.1 mg ai/l): 70%
- inh % (DFZ alone) (Aspergillus niger [3]; DFZ 0.05 mg ai/l): 0%
- inh % (DFZ alone) (Aspergillus niger [3]; DFZ 0.2 mg ai/l): 0%
- inh % (DFZ alone) (Aspergillus niger [3]; DFZ 0.8 mg ai/l): 10%
- EC95 (Alternaria tenuissima [4]; A. tenuissima): 0.7 mg ai/l
- MIC (Alternaria tenuissima [4]; [11]): 0.8 µg/mL (≈ 1.97 µM)
- EC95 (Stachybotrys chartarum [5]; S. chartarum): 2.7 mg ai/l
- MIC (Stachybotrys chartarum [5]; [12]): 3.1 µg/mL (≈ 7.63 µM)
- EC95 (Penicillium citrinum; P. citrinum): 1.7 mg ai/l
- MIC (Penicillium citrinum; [13]): 1.6 µg/mL (≈ 3.94 µM)
- EC95 (Aureobasidium pullulans [6]; A. pullulans): 8 mg ai/l
- MIC (Aureobasidium pullulans [6]; [14]): 12.5 µg/mL (≈ 30.8 µM)
- EC95 (Aspergillus niger [7]; A. niger): 1.4 mg ai/l
- MIC (Aspergillus niger [7]; [15]): 1.6 µg/mL (≈ 3.94 µM)

Compound: N#Cc1c[nH]cc1-c1cccc2c1OC(F)(F)O2 [Fludioxonil]
- inh % (FDL alone) (Alternaria tenuissima [1]; FDL 0.2 mg ai/l, listed as FDL): 90% and 70%
- inh % (FDL alone) (Alternaria tenuissima [1]; FDL 0.8 mg ai/l): 90%
- inh % (FDL alone) (Stachybotrys chartarum [8]; FDL 0.05 mg ai/l): 10%
- inh % (FDL alone) (Aureobasidium pullulans [2]; FDL 0.8 mg ai/l): 10%
- inh % (FDL alone) (Aureobasidium pullulans [2]; FDL 1.6 mg ai/l, listed as FDL): 0% and 10%
- inh % (FDL alone) (Aureobasidium pullulans [2]; FDL 3.1 mg ai/l, listed as FDL): 0% and 10%
- inh % (FDL alone) (Aureobasidium pullulans [2]; FDL 12.5 mg ai/l, listed as FDL): 0% and 10%
- inh % (FDL alone) (Aureobasidium pullulans [2]; FDL 50 mg ai/l, listed as FDL): 0% and 10%
- inh % (FDL alone) (Aureobasidium pullulans [2]; FDL 100 mg ai/l, listed as FDL): 0% and 10%
- inh % (FDL alone) (Aspergillus niger [3]; FDL 0.2 mg ai/l): 30%
- inh % (FDL alone) (Aspergillus niger [3]; FDL 0.8 mg ai/l): 30%
- inh % (FDL alone) (Aspergillus niger [3]; FDL 1.6 mg ai/l): 30%
- inh % (FDL alone) (Aspergillus niger [3]; FDL 3.1 mg ai/l): 30%
- inh % (FDL alone) (Aspergillus niger [3]; FDL 12.5 mg ai/l): 30%
- inh % (FDL alone) (Aspergillus niger [3]; FDL 50 mg ai/l): 30%
- inh % (FDL alone) (Aspergillus niger [3]; FDL 100 mg ai/l): 30%
- EC95 (Alternaria tenuissima [4]; A. tenuissima): 1.3 mg ai/l
- MIC (Alternaria tenuissima [4]): 1.6 µg/mL (≈ 6.45 µM)
- EC95 (Stachybotrys chartarum [5]; S. chartarum): 0.18 mg ai/l
- MIC (Stachybotrys chartarum [5]): 0.2 µg/mL (≈ 0.806 µM)
- EC95 (Penicillium citrinum; P. citrinum): 0.18 mg ai/l
- MIC (Penicillium citrinum): 0.2 µg/mL (≈ 0.806 µM)
- EC95 (Aureobasidium pullulans [6]; A. pullulans): >100 mg ai/l
- MIC (Aureobasidium pullulans [6]): > 100 µg/mL
- EC95 (Aspergillus niger [7]; A. niger): >100 mg ai/l
- MIC (Aspergillus niger [7]): > 100 µg/mL
- Concentration required for 80% Activity (Aspergillus versicolor): 0.81 mg/L
- Concentration required for 80% Activity (Mucor indicus): 2.8 mg/L
- Concentration required for 95% Activity (Alternaria alternata): 0.95 mg/L
- Concentration required for 80% Activity (Ulocladium chartarum): 0.28 mg/L

Compound: CCCC1COC(Cn2cncn2)(c2ccc(Cl)cc2Cl)O1 (stereo not shown) [Propiconazole]
- inh % (PPZ alone) (Alternaria tenuissima [1]; PPZ 0.8 mg ai/l): 0%
- inh % (PPZ alone) (Alternaria tenuissima [1]; PPZ 1.6 mg ai/l): 10%
- inh % (PPZ alone) (Alternaria tenuissima [1]; PPZ 3.1 mg ai/l): 30%
- inh % (PPZ alone) (Aureobasidium pullulans [2]; PPZ 3.1 mg ai/l): 70%
- inh % (PPZ alone) (Aureobasidium pullulans [2]; PPZ 12.5 mg ai/l): 70%
- inh % (PPZ alone) (Aspergillus niger [3]; PPZ 0.05 mg ai/l): 0%
- inh % (PPZ alone) (Aspergillus niger [3]; PPZ 0.2 mg ai/l): 0%
- inh % (PPZ alone) (Aspergillus niger [3]; PPZ 0.8 mg ai/l): 0%
- inh % (PPZ alone) (Aspergillus niger [3]; PPZ 1.6 mg ai/l): 30%
- EC95 (Alternaria tenuissima [4]; A. tenuissima): 10.1 mg ai/l
- MIC (Alternaria tenuissima [4]; [11]): 12.5 µg/mL (≈ 36.5 µM)
- EC95 (Stachybotrys chartarum [5]; S. chartarum): >100 mg ai/l
- MIC (Stachybotrys chartarum [5]; [12]): > 100 µg/mL
- EC95 (Penicillium citrinum; P. citrinum): 1.5 mg ai/l
- MIC (Penicillium citrinum; [13]): 1.6 µg/mL (≈ 4.68 µM)
- EC95 (Aureobasidium pullulans [6]; A. pullulans): 36 mg ai/l
- MIC (Aureobasidium pullulans [6]; [14]): 50 µg/mL (≈ 146 µM)
- EC95 (Aspergillus niger [7]; A. niger): 3 mg ai/l
- MIC (Aspergillus niger [7]; [15]): 3.1 µg/mL (≈ 9.06 µM)
- Concentration required for 80% Activity (Aspergillus versicolor): 9.2 mg/L
- Concentration required for 80% Activity (Mucor indicus): 61 mg/L
- Concentration required for 95% Activity (Alternaria alternata): 16 mg/L
- Concentration required for 80% Activity (Ulocladium chartarum): 4.2 mg/L

Compound: c1ccc2[nH]c(-c3cscn3)nc2c1 [Thiabendazole]
- Concentration required for 80% Activity (Aspergillus versicolor): 6.9 mg/L
- Concentration required for 80% Activity (Mucor indicus): No effect
- Concentration required for 95% Activity (Alternaria alternata): >5000 mg/L
- Concentration required for 80% Activity (Ulocladium chartarum): No effect
